Read-outs that look alike come from different tables or passages of the source.
How the values were obtained:
cancer cells = details: cited from earlier work
[1] = Tissue distribution study with metapristone; assay type: in vivo, SD rats; details: female rats, 45 mg/kg single oral dose
Description: Sixteen SD rats (four females/group) were dosed by gavage with 45 mg/kg of metapristone to carry out tissue distribution study, as we previously described. Rats were sacrificed at 6 h and 24 h after dosing in order to collect blood, heart, liver, spleen, lung, kidney, brain, intestine and ovary for quantitative analysis of metapristone concentrations. Tissue samples were immediately washed in normal saline to remove the blood or content, and blotted dry with filter paper. Tissue samples (0.2 g) were individually homogenized with normal saline (0.8 mL). Tissue homogenates (100 µL) were processed as the plasma samples. The detailed method validation for analysis of metapristone in plasma, tissue homogenates, and liver microsomal samples is provided in the Supplementary materials.

[2] = In vitro microsomal metabolism of metapristone; assay type: in vitro ADME, rat; details: for metapristone remained: 2 h; for degradation of metapristone: 37 °C, 1 h
Description: The microsomal assay was similar to that described previously. Briefly, metapristone (6, 9, 13.5 µM) was incubated with male and female at liver microsomes, respectively, in an NADPH-generating system containing 1 mM NADP, 10 mM glucose-6-phosphate, 1 U/mL glucose-6-phosphate dehydrogenase and 4 mM MgCl2 in 100 mM potassium phosphate buffer (pH 7.4). Reaction mixtures were prepared in duplicate and were pre-incubated for 5 min at 37 °C. The actions were then initiated by the addition of NADPH solution. The final volume of each reaction mixture was 200 µL. Negative control reactions were prepared by incubating mixtures that excluded metapristone from the mixture. For negative control incubation where microsomes were excluded, they were added back to the reaction mixture after quenching with methanol. Samples were removed at 0, 40, 60, 80,100, 120 and 150 min, and vortex-mixed with cold ethyl acetate to stop the reaction. After centrifugation, a portion of each resulting supernatant was analyzed by mass spectrometry for unchanged metapristone.

[3] = Single oral dose pharmacokinetics of metapristone in beagle dogs, non-compartmental analysis; assay type: in vivo; details: for AUC(0-inf) / AUC(0-t) / CL/F / Cmax / Tmax / Vd/F / half-life / MRT last: beagle, dog, plasma, po; for MRT last: read-out: MRT (0-t)
Description: For pharmacokinetic study, rats were fasted overnight with free access to water using procedures reported previously. Ninety-six SD rats (forty-eight males and forty-eight females) were randomly divided into […] single-dose groups. Rats (six animals/sex/dose) were given a single oral dose of 22.5, 45 and 90 mg/kg metapristone (in soybean oil solution) by intragastric administration or 10 mg/kg metapristone by intravenous bolus injection. Rat blood samples (0.25 mL) were collected from the ocular vein into heparinized tubes prior to and at 0 (before administration), 0.5, 1.0, 1.5, 2.0, 4.0, 6.0, 8.0, 12, 24, 36 and 48 h post-dosing in female rats or 0.5, 1.0, 1.5, 2.0, 4.0, 6.0, 8.0, 12, 24, 30 and 36 h post-dosing in male rats. In the repeated dose study twenty-four rats (six animals/sex/dose) received the same dosing regimen at 45 mg/kg metapristone for 10 days. Blood samples were collected after oral administration on day 1 and 10 at T max. The samples were stored at −80 °C until analysis. Beagle dogs (three animals/sex/dose) were dosed by gavage at 5.62, 11.25, 22.5 mg/kg metapristone (in soybean oil solution). Dog blood (0.25 mL) was withdrawn from the jugular vein at 0.5, 1.0, 2.0, 4.0, 6.0, 8.0, 10, 12, 24 and 48 h after a single oral administration.
The plasma samples obtained by centrifugation at 4000 g for 10 min and stored at −80 °Cuntil analysis. To each 100 µL of plasma sample, 50 µL of internal standard solution were added. Metapristone was then separated and analyzed by the LC/MS/MS method according to the previously described procedures. Peak area ratios of metapristone to the internal standard were plotted against theoretical concentrations. The maximum plasma concentration (C max), the time to reach C max (T max) were determined directly from experimental data. The other pharmacokinetic parameters such as elimination half-life (t 1/2), and mean residence time (MRT) were calculated by using the non-compartmental pharmacokinetics data analysis software of DAS version 3.2 (Bio Guider Co., Shanghai, China). The area under the plasma concentration-time curve from zero to infinity was calculated by using the linear trapezoidal rule with extrapolation to infinity with terminal constant eliminate rate (k e). Bioavailability was calculated as (AUCp.o./AUCi.v.) x (dosei.v./ dosep.o.) 100% as we previously described.

[4] = 5.62, 11.25 and 22.5 mg/kg p.o.

Q: Which “effect on cancer cells” value (cancer cells) does the source give for `CC#C[C@]1(O)CC[C@H]2[C@@H]3CCC4=CC(=O)CCC4=C3[C@@H](c3ccc(NC)cc3)C[C@@]21C` [metapristone, N-monodemethyl mifepristone] here?
A: The value was “cytostatic effect”.

Q: What about the concentration at 6 h ([1]; Sprague-Dawley, rat, liver, 6 h) of the same compound?
A: The concentration at 6 h was 222000 ± 23000 ng/g.

Q: And the “metapristone in rat brain” value [1]?
A: Its value is “detected”.

Q: And the metapristone remained ([2]; female rat liver microsomes, 6 µM)?
A: Its metapristone remained is 21.9%.

Q: What about the metapristone remained ([2]; female rat liver microsomes, 9 µM) of the same compound?
A: Its metapristone remained is 27.2%.

Q: And the metapristone remained ([2]; female rat liver microsomes, 13.5 µM)?
A: The metapristone remained was 37.3%.

Q: And the degradation of metapristone ([2]; female rat liver microsomes, 6, 9 and 13.5 µM)?
A: The degradation of metapristone was 35.1–48.9%.

Q: What about the metapristone remained ([2]; male rat liver microsomes, 6 µM) of the same compound?
A: The metapristone remained was 10.2%.

Q: And the metapristone remained ([2]; male rat liver microsomes, 9 µM)?
A: The metapristone remained was 14.2%.

Q: And the metapristone remained ([2]; male rat liver microsomes, 13.5 µM)?
A: Its metapristone remained is 29.6%.

Q: What about the degradation of metapristone ([2]; male rat liver microsomes, 6, 9 and 13.5 µM) of the same compound?
A: The degradation of metapristone was 47.4–67.6%.

Q: What about the “C max and AUC in female dogs relative to male dogs (greater)” value [3, 4] of the same compound?
A: Its value is 1–2.4 fold.

Q: What about the “CL/F in female dogs relative to male dogs (lower)” value [3, 4] of the same compound?
A: The value was 1.5–3.6 fold.

Q: What about the “V d /F in female dogs relative to male dogs (lower)” value [3, 4] of the same compound?
A: The value was 1.3–2.38 fold.

Q: What about the AUC(0-inf) ([3]; female dogs, p.o. 5.6 mg/kg) of the same compound?
A: The AUC(0-inf) was 580 ± 120 ng·h/mL.

Q: And the AUC(0-t) ([3]; female dogs, p.o. 5.6 mg/kg)?
A: The AUC(0-t) was 560 ± 110 ng·h/mL.

Q: What about the CL/F ([3]; female dogs, p.o. 5.6 mg/kg) of the same compound?
A: The CL/F was 165 mL/min/kg.

Q: And the Cmax ([3]; female dogs, p.o. 5.6 mg/kg)?
A: Its Cmax is 70 ± 10 ng/mL.

Q: What about the Tmax ([3]; female dogs, p.o. 5.6 mg/kg) of the same compound?
A: Its Tmax is 1.67 ± 0.57 h.

Q: What about the Vd/F ([3]; female dogs, p.o. 5.6 mg/kg) of the same compound?
A: The Vd/F was 126 ± 7.1 L/kg.

Q: And the half-life ([3]; female dogs, p.o. 5.6 mg/kg)?
A: The half-life was 8.05 ± 1.12 h.

Q: And the MRT last ([3]; female dogs, p.o. 5.6 mg/kg)?
A: The MRT last was 7.23 ± 1.69 h.

Q: And the AUC(0-inf) ([3]; female dogs, p.o. 11.25 mg/kg)?
A: Its AUC(0-inf) is 1330 ± 110 ng·h/mL.

Q: And the AUC(0-t) ([3]; female dogs, p.o. 11.25 mg/kg)?
A: Its AUC(0-t) is 1280 ± 100 ng·h/mL.

Q: And the CL/F ([3]; female dogs, p.o. 11.25 mg/kg)?
A: Its CL/F is 141 mL/min/kg.

Q: What about the Cmax ([3]; female dogs, p.o. 11.25 mg/kg) of the same compound?
A: The Cmax was 190 ± 30 ng/mL.

Q: And the Tmax ([3]; female dogs, p.o. 11.25 mg/kg)?
A: Its Tmax is 1.67 ± 0.57 h.

Q: And the Vd/F ([3]; female dogs, p.o. 11.25 mg/kg)?
A: The Vd/F was 105 ± 9.17 L/kg.

Q: And the half-life ([3]; female dogs, p.o. 11.25 mg/kg)?
A: Its half-life is 8.57 ± 1.12 h.

Q: What about the MRT last ([3]; female dogs, p.o. 11.25 mg/kg) of the same compound?
A: Its MRT last is 8.62 ± 0.56 h.

Q: What about the AUC(0-inf) ([3]; female dogs, p.o. 22.5 mg/kg) of the same compound?
A: The AUC(0-inf) was 2560 ± 210 ng·h/mL.

Q: What about the AUC(0-t) ([3]; female dogs, p.o. 22.5 mg/kg) of the same compound?
A: The AUC(0-t) was 2400 ± 150 ng·h/mL.

Q: What about the CL/F ([3]; female dogs, p.o. 22.5 mg/kg) of the same compound?
A: Its CL/F is 147 mL/min/kg.

Q: What about the Cmax ([3]; female dogs, p.o. 22.5 mg/kg) of the same compound?
A: The Cmax was 380 ± 10 ng/mL.

Q: And the Tmax ([3]; female dogs, p.o. 22.5 mg/kg)?
A: Its Tmax is 1.66 ± 0.57 h.

Q: What about the Vd/F ([3]; female dogs, p.o. 22.5 mg/kg) of the same compound?
A: Its Vd/F is 89.2 ± 14.1 L/kg.

Q: What about the half-life ([3]; female dogs, p.o. 22.5 mg/kg) of the same compound?
A: The half-life was 7.19 ± 2.83 h.

Q: And the MRT last ([3]; female dogs, p.o. 22.5 mg/kg)?
A: The MRT last was 7 ± 0.61 h.

Q: What about the AUC(0-inf) ([3]; male dogs, p.o. 5.6 mg/kg) of the same compound?
A: The AUC(0-inf) was 230 ± 50 ng·h/mL.

Q: And the AUC(0-t) ([3]; male dogs, p.o. 5.6 mg/kg)?
A: Its AUC(0-t) is 210 ± 30 ng·h/mL.

Q: And the CL/F ([3]; male dogs, p.o. 5.6 mg/kg)?
A: The CL/F was 266 mL/min/kg.

Q: What about the Cmax ([3]; male dogs, p.o. 5.6 mg/kg) of the same compound?
A: The Cmax was 50 ng/mL.

Q: And the Tmax ([3]; male dogs, p.o. 5.6 mg/kg)?
A: Its Tmax is 2 h.

Q: What about the Vd/F ([3]; male dogs, p.o. 5.6 mg/kg) of the same compound?
A: The Vd/F was 187 ± 8.21 L/kg.

Q: And the half-life ([3]; male dogs, p.o. 5.6 mg/kg)?
A: The half-life was 8.18 ± 2.9 h.

Q: And the MRT last ([3]; male dogs, p.o. 5.6 mg/kg)?
A: The MRT last was 7.16 ± 1.12 h.

Q: And the AUC(0-inf) ([3]; male dogs, p.o. 11.25 mg/kg)?
A: The AUC(0-inf) was 770 ± 110 ng·h/mL.

Q: And the AUC(0-t) ([3]; male dogs, p.o. 11.25 mg/kg)?
A: Its AUC(0-t) is 750 ± 100 ng·h/mL.

Q: What about the CL/F ([3]; male dogs, p.o. 11.25 mg/kg) of the same compound?
A: The CL/F was 241 mL/min/kg.

Q: What about the Cmax ([3]; male dogs, p.o. 11.25 mg/kg) of the same compound?
A: Its Cmax is 150 ± 30 ng/mL.

Q: What about the Tmax ([3]; male dogs, p.o. 11.25 mg/kg) of the same compound?
A: Its Tmax is 2 h.

Q: What about the Vd/F ([3]; male dogs, p.o. 11.25 mg/kg) of the same compound?
A: Its Vd/F is 136 ± 13.1 L/kg.

Q: What about the half-life ([3]; male dogs, p.o. 11.25 mg/kg) of the same compound?
A: Its half-life is 5.54 ± 2.3 h.

Q: What about the MRT last ([3]; male dogs, p.o. 11.25 mg/kg) of the same compound?
A: The MRT last was 5.68 ± 1.1 h.

Q: And the AUC(0-inf) ([3]; male dogs, p.o. 22.5 mg/kg)?
A: Its AUC(0-inf) is 1600 ± 340 ng·h/mL.

Q: And the AUC(0-t) ([3]; male dogs, p.o. 22.5 mg/kg)?
A: The AUC(0-t) was 1560 ± 310 ng·h/mL.

Q: What about the CL/F ([3]; male dogs, p.o. 22.5 mg/kg) of the same compound?
A: Its CL/F is 210 mL/min/kg.

Q: What about the Cmax ([3]; male dogs, p.o. 22.5 mg/kg) of the same compound?
A: Its Cmax is 300 ± 20 ng/mL.

Q: What about the Tmax ([3]; male dogs, p.o. 22.5 mg/kg) of the same compound?
A: The Tmax was 2 h.

Q: What about the Vd/F ([3]; male dogs, p.o. 22.5 mg/kg) of the same compound?
A: The Vd/F was 123 ± 15 L/kg.

Q: What about the half-life ([3]; male dogs, p.o. 22.5 mg/kg) of the same compound?
A: The half-life was 6.79 ± 2.81 h.

Q: What about the MRT last ([3]; male dogs, p.o. 22.5 mg/kg) of the same compound?
A: Its MRT last is 6.18 ± 0.34 h.

Q: And the “increase of Cmax for female dogs versus male dogs” value ([3]; p.o. 5.6 mg/kg)?
A: Its value is 40%.
